# From US10407430B2, “Janus kinase 1 selective inhibitor and pharmaceutical use thereof” (YANG JI CHEMICAL CO., LTD., priority 2015, dated 2019)
# Assays:
# Format in all cases: biochemical
# Human JAK1 = molecular target: T1, Human JAK1 (Homo sapiens, UniProt P23458); experiment: In-vitro kinase inhibition test, JAK1; details: for inhibition at 1 µM: compound at 1 uM, read-out: JAK1 kinase-phosphorylation inhibitory level (% inhibition); for JAK1/JAK2: ratio of % inhibition of JAK1 to JAK2 at 1 uM
# T1 construct: purchased Millipore, Germany
# T1 sequence (P23458 whole entry): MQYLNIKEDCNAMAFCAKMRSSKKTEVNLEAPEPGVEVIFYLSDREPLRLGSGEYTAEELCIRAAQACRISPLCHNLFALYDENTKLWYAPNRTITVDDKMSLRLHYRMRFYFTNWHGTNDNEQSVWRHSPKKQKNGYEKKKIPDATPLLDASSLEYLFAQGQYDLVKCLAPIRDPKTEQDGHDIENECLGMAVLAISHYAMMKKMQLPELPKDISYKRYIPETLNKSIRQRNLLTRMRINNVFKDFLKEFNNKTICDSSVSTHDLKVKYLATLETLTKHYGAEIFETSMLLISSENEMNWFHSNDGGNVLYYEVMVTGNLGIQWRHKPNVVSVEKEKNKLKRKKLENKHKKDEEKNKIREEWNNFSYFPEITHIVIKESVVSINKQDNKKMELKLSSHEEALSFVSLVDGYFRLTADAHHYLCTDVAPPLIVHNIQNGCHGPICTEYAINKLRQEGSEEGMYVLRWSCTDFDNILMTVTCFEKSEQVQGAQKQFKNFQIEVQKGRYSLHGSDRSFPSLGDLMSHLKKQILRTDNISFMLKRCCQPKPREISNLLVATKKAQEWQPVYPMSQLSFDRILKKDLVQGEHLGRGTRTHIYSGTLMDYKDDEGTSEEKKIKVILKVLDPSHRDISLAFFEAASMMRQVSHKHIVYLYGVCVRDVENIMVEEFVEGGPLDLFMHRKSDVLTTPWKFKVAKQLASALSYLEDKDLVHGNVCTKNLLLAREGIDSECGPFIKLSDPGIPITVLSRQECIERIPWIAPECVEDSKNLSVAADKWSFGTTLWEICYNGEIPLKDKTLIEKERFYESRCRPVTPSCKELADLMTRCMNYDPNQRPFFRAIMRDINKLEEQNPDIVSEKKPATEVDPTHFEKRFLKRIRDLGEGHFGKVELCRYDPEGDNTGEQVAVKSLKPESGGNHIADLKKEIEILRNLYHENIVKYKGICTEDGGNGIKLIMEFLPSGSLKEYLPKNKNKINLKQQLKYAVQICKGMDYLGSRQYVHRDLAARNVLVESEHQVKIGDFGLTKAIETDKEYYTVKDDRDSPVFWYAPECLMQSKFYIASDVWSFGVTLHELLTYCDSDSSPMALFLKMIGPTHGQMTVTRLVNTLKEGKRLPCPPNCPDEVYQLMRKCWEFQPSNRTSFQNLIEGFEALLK
# Human JAK2 = molecular target: T2, Human JAK2 (Homo sapiens, UniProt O60674); experiment: In-vitro kinase inhibition test, JAK2; details: for inhibition at 1 µM: compound at 1 uM, read-out: JAK2 kinase-phosphorylation inhibitory level (% inhibition)
# T2 construct: purchased Millipore, Germany
# T2 sequence (O60674 whole entry): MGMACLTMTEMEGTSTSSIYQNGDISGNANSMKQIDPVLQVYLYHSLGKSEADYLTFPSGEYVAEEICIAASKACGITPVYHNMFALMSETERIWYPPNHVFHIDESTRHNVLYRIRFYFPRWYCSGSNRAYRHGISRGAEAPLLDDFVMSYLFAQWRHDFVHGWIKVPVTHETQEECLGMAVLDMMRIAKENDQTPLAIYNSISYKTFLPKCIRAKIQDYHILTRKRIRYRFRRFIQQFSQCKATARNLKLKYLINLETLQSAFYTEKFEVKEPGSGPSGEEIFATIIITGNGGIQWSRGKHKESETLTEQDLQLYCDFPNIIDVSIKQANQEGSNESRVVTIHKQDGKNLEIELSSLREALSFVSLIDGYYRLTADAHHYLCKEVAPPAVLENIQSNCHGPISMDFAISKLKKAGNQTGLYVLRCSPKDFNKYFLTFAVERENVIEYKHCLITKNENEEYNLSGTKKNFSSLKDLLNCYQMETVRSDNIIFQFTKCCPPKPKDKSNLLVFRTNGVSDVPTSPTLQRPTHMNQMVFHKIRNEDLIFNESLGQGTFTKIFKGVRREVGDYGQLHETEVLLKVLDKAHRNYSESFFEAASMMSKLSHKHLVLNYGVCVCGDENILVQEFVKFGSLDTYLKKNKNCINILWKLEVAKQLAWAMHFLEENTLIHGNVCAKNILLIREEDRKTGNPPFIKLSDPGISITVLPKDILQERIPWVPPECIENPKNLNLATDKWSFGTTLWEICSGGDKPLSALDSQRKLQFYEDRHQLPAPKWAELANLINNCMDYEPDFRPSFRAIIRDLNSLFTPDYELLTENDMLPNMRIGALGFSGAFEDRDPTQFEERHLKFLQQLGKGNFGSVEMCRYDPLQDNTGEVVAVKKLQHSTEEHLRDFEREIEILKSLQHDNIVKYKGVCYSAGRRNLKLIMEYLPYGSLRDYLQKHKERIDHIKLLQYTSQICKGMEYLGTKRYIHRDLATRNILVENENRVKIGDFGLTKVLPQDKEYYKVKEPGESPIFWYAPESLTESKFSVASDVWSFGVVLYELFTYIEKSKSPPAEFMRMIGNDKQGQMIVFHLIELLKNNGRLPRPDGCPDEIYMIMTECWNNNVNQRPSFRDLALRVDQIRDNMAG
# Description: (§1) Human-derived JAK1, JAK2, JAK3 and TYK2 (Millipore, Germany) were used as kinases. Each kinase was diluted with an appropriate buffer as described below, and then mixed with reaction reagents.
# (§2) 3-morpholinopropane-1-sulfonic acid (MOPS) and EDTA were dissolved in deionized water at a concentration of 20 mM and 1 mM, respectively, and then 100 μL of β-mercaptoethanol, 10 μL of Brij-35™, 5 mL of glycerol, and 100 mg of bovine serum albumin (BSA), each per 100 mL of the solution, were added to the solution, thereby preparing a dilution buffer for JAK2, JAK3, and TYK2.
# (§3) Each compound was dissolved in a 100%-DMSO solution at a concentration of about 50 μM. This prepared solution was reacted with reaction reagents in each well of a 96-well plate until a final concentration of the compound reached 1 μM. A detailed experimental method for each kinase is as follows.
# (§4) After reaction for about 40 minutes at room temperature, the reaction was stopped by adding 5 uL of a 3% (v/v) phosphoric acid solution.
# (§5) The inhibitory levels (% inhibition) represent a percentage of reduction in phosphorylation activity in each test group with respect to the phosphorylation activity of a corresponding kinase in a negative control group lacking any of the compounds synthesized in the examples. % inhibition=[(Scintillation value of Test compound non-treatment group−Scintillation value of Test compound treatment group)/(Scintillation value of Test compound non-treatment group)]×100
# Human JAK3 = molecular target: T3, Human JAK3 (Homo sapiens, UniProt P52333); experiment: In-vitro kinase inhibition test, JAK3; details: for inhibition at 1 µM: compound at 1 uM, read-out: JAK3 kinase-phosphorylation inhibitory level (% inhibition)
# T3 construct: purchased Millipore, Germany
# T3 sequence (P52333 1-1124): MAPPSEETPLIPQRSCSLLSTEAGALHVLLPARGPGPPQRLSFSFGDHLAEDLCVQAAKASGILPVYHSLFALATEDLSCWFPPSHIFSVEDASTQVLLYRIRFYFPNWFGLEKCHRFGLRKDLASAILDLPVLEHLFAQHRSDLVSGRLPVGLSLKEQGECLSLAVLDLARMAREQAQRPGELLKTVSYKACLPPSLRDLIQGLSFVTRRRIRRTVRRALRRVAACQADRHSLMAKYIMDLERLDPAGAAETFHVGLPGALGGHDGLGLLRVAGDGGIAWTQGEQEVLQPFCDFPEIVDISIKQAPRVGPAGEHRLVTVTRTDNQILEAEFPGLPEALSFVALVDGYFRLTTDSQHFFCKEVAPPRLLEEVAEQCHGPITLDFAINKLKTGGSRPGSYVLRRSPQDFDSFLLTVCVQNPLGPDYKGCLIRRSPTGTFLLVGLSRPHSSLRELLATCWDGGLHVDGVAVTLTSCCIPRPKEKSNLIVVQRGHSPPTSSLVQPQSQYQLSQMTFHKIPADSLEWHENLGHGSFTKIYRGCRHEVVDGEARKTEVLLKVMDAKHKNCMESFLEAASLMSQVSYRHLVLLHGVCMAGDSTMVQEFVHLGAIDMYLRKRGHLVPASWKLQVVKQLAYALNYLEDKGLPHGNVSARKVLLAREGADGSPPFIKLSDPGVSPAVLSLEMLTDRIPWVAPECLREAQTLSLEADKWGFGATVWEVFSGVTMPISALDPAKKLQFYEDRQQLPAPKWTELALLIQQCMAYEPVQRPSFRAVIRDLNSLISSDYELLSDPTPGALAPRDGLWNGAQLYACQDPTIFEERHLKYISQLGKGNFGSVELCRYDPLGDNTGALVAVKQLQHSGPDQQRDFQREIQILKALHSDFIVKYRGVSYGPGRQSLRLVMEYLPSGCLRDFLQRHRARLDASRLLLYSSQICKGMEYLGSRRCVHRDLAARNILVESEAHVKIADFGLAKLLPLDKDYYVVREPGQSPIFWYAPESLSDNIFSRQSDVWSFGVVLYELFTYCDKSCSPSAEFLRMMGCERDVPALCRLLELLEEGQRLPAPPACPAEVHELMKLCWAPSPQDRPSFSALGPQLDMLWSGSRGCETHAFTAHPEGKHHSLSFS
# Human TYK2 = molecular target: T4, Human TYK2 (Homo sapiens, UniProt P29597); experiment: In-vitro kinase inhibition test, TYK2; details: for inhibition at 1 µM: compound at 1 uM, read-out: TYK2 kinase-phosphorylation inhibitory level (% inhibition)
# T4 construct: purchased Millipore, Germany
# T4 sequence (P29597 whole entry): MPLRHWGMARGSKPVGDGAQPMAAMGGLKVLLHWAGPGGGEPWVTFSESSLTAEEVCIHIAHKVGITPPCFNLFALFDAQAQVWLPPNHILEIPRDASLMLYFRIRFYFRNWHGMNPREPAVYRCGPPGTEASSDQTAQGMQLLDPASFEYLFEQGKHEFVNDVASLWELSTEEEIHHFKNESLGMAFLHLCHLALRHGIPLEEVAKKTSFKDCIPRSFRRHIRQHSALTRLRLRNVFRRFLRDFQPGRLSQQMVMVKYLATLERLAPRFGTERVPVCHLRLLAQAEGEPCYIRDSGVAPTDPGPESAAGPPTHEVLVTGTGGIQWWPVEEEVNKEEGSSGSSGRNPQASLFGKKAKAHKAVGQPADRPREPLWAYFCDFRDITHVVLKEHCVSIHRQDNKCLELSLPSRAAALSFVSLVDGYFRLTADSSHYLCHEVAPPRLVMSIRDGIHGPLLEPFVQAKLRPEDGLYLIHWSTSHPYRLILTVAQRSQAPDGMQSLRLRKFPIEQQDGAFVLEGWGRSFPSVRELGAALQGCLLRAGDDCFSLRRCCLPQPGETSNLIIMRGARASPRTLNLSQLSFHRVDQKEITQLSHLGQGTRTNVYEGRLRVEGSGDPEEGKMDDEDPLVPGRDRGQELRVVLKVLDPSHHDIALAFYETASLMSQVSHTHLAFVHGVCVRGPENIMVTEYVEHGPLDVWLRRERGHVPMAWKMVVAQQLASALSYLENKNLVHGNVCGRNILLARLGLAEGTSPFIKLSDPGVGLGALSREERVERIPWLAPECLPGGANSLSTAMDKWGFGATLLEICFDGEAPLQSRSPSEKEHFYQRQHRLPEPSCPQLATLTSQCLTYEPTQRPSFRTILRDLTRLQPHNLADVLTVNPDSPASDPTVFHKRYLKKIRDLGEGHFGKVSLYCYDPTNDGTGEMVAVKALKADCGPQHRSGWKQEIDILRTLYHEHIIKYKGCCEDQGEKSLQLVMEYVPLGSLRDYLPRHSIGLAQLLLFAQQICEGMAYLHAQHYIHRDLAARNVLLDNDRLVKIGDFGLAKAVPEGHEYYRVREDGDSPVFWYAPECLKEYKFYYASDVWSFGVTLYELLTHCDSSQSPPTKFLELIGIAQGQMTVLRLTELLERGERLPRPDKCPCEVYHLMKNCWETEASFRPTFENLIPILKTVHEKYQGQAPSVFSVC
# Description: as §1, §2, §3, §4, §5
Structure (SMILES),inhibition at 1 µM (Human JAK1),JAK1/JAK2 (Human JAK1),inhibition at 1 µM (Human JAK2),inhibition at 1 µM (Human JAK3),inhibition at 1 µM (Human TYK2),IC50 (Human JAK1),IC50 (Human JAK2),IC50 (Human JAK3),IC50 (Human TYK2)
"CN(c1ncnc2[nH]ccc12)[C@@H]1CCN(S(=O)(=O)c2ccccc2[N+](=O)[O-])C1 [Example 21, (R)—N-methyl-N-(1-((2-nitrophenyl)sulfonyl)pyrrolidine-3-yl)-7H-pyrrolo[2,3-d]pyrimidine-4-amine]",93%,1.94,48%,21%,67%,,,,
"CN(c1ncnc2[nH]ccc12)[C@@H]1CCN(S(=O)(=O)c2cccc([N+](=O)[O-])c2)C1 [Example 22, (R)—N-methyl-N-(1-((3-nitrophenyl)sulfonyl)pyrrolidine-3-yl)-7H-pyrrolo[2,3-d]pyrimidine-4-amine]",100%,1.03,97%,74%,99%,,,,
"CN(c1ncnc2[nH]ccc12)[C@@H]1CCN(S(=O)(=O)c2ccc([N+](=O)[O-])cc2)C1 [Example 23, (R)—N-methyl-N-(1-((4-nitrophenyl)sulfonyl)pyrrolidine-3-yl)-7H-pyrrolo[2,3-d]pyrimidine-4-amine]",100%,1.19,84%,31%,94%,,,,
"Cc1cccc(S(=O)(=O)N2CC[C@@H](N(C)c3ncnc4[nH]ccc34)C2)c1 [Example 24, (R)—N-methyl-N-(1-(m-tolylsulfonyl)pyrrolidine-3-yl)-7H-pyrrolo[2,3-d]pyrimidine-4-amine]",95%,1.79,53%,8%,87%,,,,
"Cc1ccc(S(=O)(=O)N2CC[C@@H](N(C)c3ncnc4[nH]ccc34)C2)cc1 [Example 25, (R)—N-methyl-N-(1-tosylpyrrolidine-3-yl)-7H-pyrrolo[2,3-d]pyrimidine-4-amine]",97%,2.31,42%,10%,68%,,,,
"COc1ccc(S(=O)(=O)N2CC[C@@H](N(C)c3ncnc4[nH]ccc34)C2)cc1 [Example 26, (R)—N-(1-((4-methoxyphenyl)sulfonyl)pyrrolidine-3-yl)-N-methyl-7H-pyrrolo[2,3-d]pyrimidine-4-amine]",98%,2.23,44%,10%,71%,,,,
"CN(c1ncnc2[nH]ccc12)[C@@H]1CCN(S(=O)(=O)c2ccc(C(F)(F)F)cc2)C1 [Example 27, (R)—N-methyl-N-(1-((4-(trifluoromethyl)phenyl)sulfonyl)pyrrolidine-3-yl)-7H-pyrrolo[2,3-d]pyrimidine-4-amine]",96%,4.57,21%,4%,56%,,,,
"CN(c1ncnc2[nH]ccc12)[C@@H]1CCN(S(=O)(=O)c2ccc3ccccc3c2)C1 [Example 28, (R)—N-methyl-N-(1-(naphthalene-2-ylsulfonyl)pyrrolidine-3-yl)-7H-pyrrolo[2,3-d]pyrimidine-4-amine]",99%,1.74,57%,23%,82%,,,,
"CN(c1ncnc2[nH]ccc12)[C@@H]1CCN(S(=O)(=O)N2CCCCC2)C1 [Example 29, (R)—N-methyl-N-(1-(piperidine-1-ylsulfonyl)pyrrolidine-3-yl)-7H-pyrrolo[2,3-d]pyrimidine-4-amine]",91%,4.33,21%,10%,65%,,,,
"CN(c1ncnc2[nH]ccc12)[C@@H]1CCN(S(=O)(=O)N2CCOCC2)C1 [Example 30, (R)—N-methyl-N-(1-(morpholinosulfonyl)pyrrolidine-3-yl)-7H-pyrrolo[2,3-d]pyrimidine-4-amine]",87%,14.50,6%,13%,44%,,,,
"N#Cc1cccc(S(=O)(=O)N2CC[C@@H](Nc3ncnc4[nH]ccc34)C2)c1 [Example 32, (R)-3-((3-((7H-pyrrolo[2,3-d]pyrimidine-4-yl)amino)pyrrolidine-1-yl)sulfonyl)benzonitrile]",67%,2.31,29%,3%,30%,,,,
"CCN(c1ncnc2[nH]ccc12)[C@@H]1CCN(C(=O)CC#N)C1 [Example 33, (R)-3-(3-(ethyl(7H-pyrrolo[2,3-d]pyrimidine-4-yl)amino)pyrrolidine-1-yl)-3-oxopropanenitrile]",97%,1.07,91%,63%,94%,,,,
"CCN(c1ncnc2[nH]ccc12)[C@@H]1CCN(S(=O)(=O)c2cccc(C#N)c2)C1 [Example 34, (R)-3-((3-(ethyl(7H-pyrrolo[2,3-d]pyrimidine-4-yl)amino)pyrrolidine-1-yl)sulfonyl)benzonitrile]",97%,1.13,86%,19%,92%,,,,
"N#CCC(=O)N1CC[C@@H](N(CC2CC2)c2ncnc3[nH]ccc23)C1 [Example 35, (R)-3-(3-((cyclopropylmethyl)(7H-pyrrolo[2,3-d]pyrimidine-4-yl)amino)pyrrolidine-1-yl)-3-oxopropanenitrile]",88%,2.59,34%,14%,37%,,,,
"N#Cc1cccc(S(=O)(=O)N2CC[C@@H](N(CC3CC3)c3ncnc4[nH]ccc34)C2)c1 [Example 36, (R)-3-((3-((cyclopropylmethyl)(7H-pyrrolo[2,3-d]pyrimidine-4-yl)amino)pyrrolidine-1-yl)sulfonyl)benzonitrile]",87%,2.18,40%,10%,57%,,,,
"CN(c1ncnc2[nH]ccc12)C1CCN(C(=O)CC#N)CC1 [Example 37, 3-(4-(methyl(7H-pyrrolo[2,3-d]pyrimidine-4-yl)amino)piperidine-1-yl)-3-oxopropanenitrile]",49%,49.00,1%,8%,-3%,,,,
"CN(c1ncnc2[nH]ccc12)C1CCN(S(=O)(=O)c2ccccc2)CC1 [Example 38, N-methyl-N-(1-(phenylsulfonyl)piperidine-4-yl)-7H-pyrrolo[2,3-d]pyrimidine-4-amine]",97%,1.03,94%,77%,97%,4.2 nM,19 nM,147 nM,18.8 nM
"CN(c1ncnc2[nH]ccc12)C1CCN(S(=O)(=O)c2cccc(C#N)c2)CC1 [Example 39, 3-((4-(methyl(7H-pyrrolo[2,3-d]pyrimidine-4-yl)amino)piperidine-1-yl)sulfonyl)benzonitrile]",87%,1.47,59%,1%,69%,,,,
"CN(c1ncnc2[nH]ccc12)[C@@H]1CCCN(C(=O)CC#N)C1 [Example 40, (R)-3-(3-(methyl(7H-pyrrolo[2,3-d]pyrimidine-4-yl)amino)piperidine-1-yl)-3-oxopropanenitrile]",99%,1.19,83%,81%,93%,,,,
"CN(c1ncnc2[nH]ccc12)[C@@H]1CCCN(S(=O)(=O)c2cccc(C#N)c2)C1 [Example 41, (R)-3-((3-(methyl(7H-pyrrolo[2,3-d]pyrimidine-4-yl)amino)piperidine-1-yl)sulfonyl)benzonitrile]",92%,1.44,64%,39%,79%,,,,
